Measured values taken from patent publication US20160089434A1, “COMBINATIONS OF AN ANTI-PD-L1 ANTIBODY AND A MEK INHIBITOR AND/OR A BRAF INHIBITOR” (NOVARTIS AG, priority 2013, published 2016).

Experiments:
pERK1/2 (T202/Y204) = test: MAPK signaling inhibition in CT26 cells by western blot (pERK); assay type: cell-based, mouse; details: 24 hours
Protocol: MAPK signaling inhibition by Compound A from CT 26 cells were determined by western blot analysis. CT26 cells were treated with Compound A in culture medium containing 10% FBS for 24 hours. Proteins were extracted for immunoblotting with anti-ERK1/2 and pERK1/2 (T202/Y204) from Santa Cruz Biotechnology. The membranes were developed with Odyssey Infrared Imaging System (LI-COR Biosciences).

CT26 tumors = test: CT-26 murine carcinoma syngeneic mouse model; assay type: in vivo, BALB/C mice; details: mono-therapy at 1 mg/kg orally once a day, after 18 days of treatment
Protocol: Female BALB/C mice (Charles River) were used. The animals received food and water ad libitum and were housed in compliance normal standard of care for Laboratory Animals. Tumors were established by subcutaneously implanting 5×10^4 CT26 cells in suspension into the right flanks of mice. Tumor […] were calculated using the equation (l×w^2)/2, where l and w refer to the larger and smaller dimensions collected at each measurement. Treatments began at day 11 after cell implantation with tumor size around 40-100 mm^3. Mice (n=10/group) were treated with Compound A at 1 mg/kg, orally once a day for 21 days, or anti-mouse antibodies, rat-IgG2a and αPD-L1 (10F.9G2 clone) at 10 mg/kg, intraperitoneally (i.p.) twice weekly for three weeks. Tumors were monitored and each animal was euthanized when it's tumor reached the endpoint volume of 2000 mm^3, ulcerated, or on the final day (Day 21), whichever came first. Percent tumor growth inhibition (% TGI) was defined as the difference between the mean tumor volume (MTV) of the designated control group and the MTV of the drug-treated group, expressed as a percentage of the MTV of the designated control group: % TGI=[1−(MTVdrug-treated/MTVcontrol)]×100.
Log-transformed tumor volume was analyzed using ANOVA, fitting a term for treatment. Differences between fitted treatment means were then calculated with associated raw p-values. […]

[1] = test system: CT26 mouse colon carcinoma cells; test: Cell growth inhibition of CT26 cells, CellTiter-Glo (CTG) assay; assay type: cell-based; details: 72 h, CT26 cells (KRAS G12D, MAPK1 and MET amplifications), 3 days, 10% FBS, read-out: IC50 value in cell proliferation inhibition
Protocol: CT26 mouse colon carcinoma cells from American Type Culture Collection (ATCC, cat#CRL-2638, lot#59227052) were cultured in RPMI with 10% fetal bovine serum (FBS) media. Cell growth inhibition was determined via CellTiter-Glo® (CTG) assay (Promega) according to the manufacturer's protocol. Approximately 24 hours after plating, cells were exposed to Compound A with three-fold serial dilutions. Cells were incubated with the compound in culture medium containing 10% FBS for 3 days. IC50 values were interpolated using the method of Levenberg & Marquardt and the equation: y=Vmax−{1−[xn/(Kn+xn)]}, where ‘K’ is equal to IC50 (Mager M E, Data Analysis in Biochemistry and Biophysics. New York: Academic Press. 1972).

IC50 [1]: 0.02 µM
SMILES: CC(=O)Nc1cccc(-n2c(=O)n(C3CC3)c(=O)c3c(Nc4ccc(I)cc4F)n(C)c(=O)c(C)c32)c1 [Compound A, N-{3-[3-cyclopropyl-5-(2-fluoro-4-iodo-phenylamino)6,8-dimethyl-2,4,7-trioxo-3,4,6,7-tetrahydro-2H-pyrido[4,3-d]pyrimidin-1-yl]phenyl}acetamide]
MAPK signaling inhibition measured by pERK (pERK1/2 (T202/Y204)): dose dependent MAPK signaling inhibition
TGI (tumor growth inhibition) (CT26 tumors): 61%
